We go through 1 molecule from PMC5190053, “Blocking the PAH2 domain of Sin3A inhibits tumorigenesis and confers retinoid sensitivity in triple negative breast cancer” (Oncotarget, 2016).

pKi: −log10 of the molar value.

The target of the assay is T1, mSin3A PAH2 domain; SIN3A PAH2; Sin3A.
T1 construct: PAH2 (paired amphipathic helix 2) domain only
Description: fluorescence anisotropy competition assay. Type of assay: binding, Mus musculus. Conditions: conditions cited to earlier work.

`O=C(O)c1cccc2c1NC(c1cccc(Cl)c1Cl)C1CC=CC21` (stereo not shown) [C16, 4-(2,3-Dichlorophenyl)-3a,4,5,9b-tetrahydro-3H-cyclopenta[c]quinoline-6-carboxylic acid]: the negative logarithm of the Ki (pKi) is 4.63.
